{
  "source": "paper PMC8026479",
  "about": "(Cancer Chemotherapy and Pharmacology, 2021)",
  "key": {"[1]": {"system": "chemotherapy-induced myelosuppression in ES-SCLC patients", "experiment": "Study G1T28-02 Part 1 DLTs and myelosuppression endpoints (with E/P)", "type": "in vivo, human", "description": "G1T28-02 (NCT02499770) was a multicentre Phase Ib/IIa study in patients with newly diagnosed ES-SCLC [5]. Eligible patients were aged ≥ 18 years and had histologically or cytologically confirmed ES-SCLC, measurable disease per Response Evaluation Criteria in Solid Tumors (RECIST) version 1.1, an Eastern Cooperative Oncology Group (ECOG) performance status of 0–2, and adequate organ function. […] In the dose-finding Part 1 portion, blood samples for PK analysis were collected at prespecified time points on Cycle 1 Day 1 and Cycle 1 Day 3 (200 mg/m^2 cohort: all patients; 240 mg/m^2 cohort: optional)."}, "[2]": {"system": "chemotherapy-induced myelosuppression in ES-SCLC patients", "experiment": "Study G1T28-03 Part 1 DLTs and myelosuppression endpoints (with topotecan)", "type": "in vivo, human", "description": "G1T28-03 (NCT02514447) was a multicentre Phase Ib/IIa study in patients with previously treated ES-SCLC [14]. Patients were aged ≥ 18 years and had histologically or cytologically confirmed ES-SCLC that had progressed during or after prior first- or second-line chemotherapy, measurable disease per RECIST version 1.1, an ECOG performance status of 0–2, and adequate organ function. Part 1 was a Phase Ib, open-label, dose-finding portion. Part 2 was a Phase IIa, randomized, double-blind, placebo-controlled portion. […] In Part 1 of the study, blood samples for PK analysis were collected at prespecified time points on Cycle 1 Day 1 and Cycle 1 Day 4 for all patients."}, "[3]": {"conditions": "G1T28-02 Part 1, 200 mg/m2 + E/P (n = 10)"}, "[4]": {"conditions": "G1T28-02 Part 1, 240 mg/m2 + E/P (n = 9)"}, "[5]": {"conditions": "G1T28-02 Part 1, trilaciclib total (n = 19)"}, "[6]": {"conditions": "G1T28-03 Part 1, 200 mg/m2 + topotecan 0.75 mg/m2 (n = 4)"}, "[7]": {"conditions": "G1T28-03 Part 1, 200 mg/m2 + topotecan 1.25 mg/m2 (n = 3)"}},
  "data": [
    {"compound": "CN1CCN(c2ccc(Nc3ncc4cc5n(c4n3)C3(CCCCC3)CNC5=O)nc2)CC1", "note": "[trilaciclib]", "values": [
      {"measurement": "DSN, median (SD) (footnote a)", "setting": "[1]; [3]", "value": "6 (5.7) days"},
      {"measurement": "Mean ANC Nadir in Cycle 1", "setting": "[1]; [3]", "value": "1.198e+09", "unit": "L⁻¹"},
      {"measurement": "Occurrence of ESA administrations", "setting": "[1]; [3]", "value": "2 (20.0) n (%)"},
      {"measurement": "Occurrence of FN", "setting": "[1]; [3]", "value": "0 n (%)"},
      {"measurement": "Occurrence of G-CSF administration", "setting": "[1]; [3]", "value": "5 (50.0) n (%)"},
      {"measurement": "Occurrence of Grade 3 or 4 hematologic laboratory abnormalities", "setting": "[1]; [3]", "value": "4 (40.0) n (%)"},
      {"measurement": "Occurrence of IV antibiotic use", "setting": "[1]; [3]", "value": "4 (40.0) n (%)"},
      {"measurement": "Occurrence of RBC transfusions on/after Week 5", "setting": "[1]; [3]", "value": "4 (40.0) n (%)"},
      {"measurement": "Occurrence of SN", "setting": "[1]; [3]", "value": "4 (40) n (%)"},
      {"measurement": "Occurrence of infection SAEs", "setting": "[1]; [3]", "value": "2 (20.0) n (%)"},
      {"measurement": "Occurrence of platelet transfusions", "setting": "[1]; [3]", "value": "1 (10.0) n (%)"},
      {"measurement": "Occurrence of pulmonary infection SAEs", "setting": "[1]; [3]", "value": "1 (10.0) n (%)"},
      {"measurement": "Patients with any event for MAHE", "setting": "[1]; [3]", "value": "6 (60.0) n (%)"},
      {"measurement": "Time to first MAHE, median", "setting": "[1]; [3]", "value": 2.6, "unit": "months"},
      {"measurement": "DLTs reported", "setting": "[1]; G1T28-02 Part 1, 200 mg/m2 + E/P, Grade 4 thrombocytopenia, and Grade 2 neutropenia resulting in Cycle 2 delay", "value": "Two DLTs"},
      {"measurement": "Mean ANC Nadir in Cycle 1", "setting": "[1]; [4]", "value": "1.653e+09", "unit": "L⁻¹"},
      {"measurement": "Occurrence of ESA administrations", "setting": "[1]; [4]", "value": "0 n (%)"},
      {"measurement": "Occurrence of FN", "setting": "[1]; [4]", "value": "0 n (%)"},
      {"measurement": "Occurrence of G-CSF administration", "setting": "[1]; [4]", "value": "3 (33.3) n (%)"},
      {"measurement": "Occurrence of Grade 3 or 4 hematologic laboratory abnormalities", "setting": "[1]; [4]", "value": "1 (11.1) n (%)"},
      {"measurement": "Occurrence of IV antibiotic use", "setting": "[1]; [4]", "value": "1 (11.1) n (%)"},
      {"measurement": "Occurrence of RBC transfusions on/after Week 5", "setting": "[1]; [4]", "value": "1 (11.1) n (%)"},
      {"measurement": "Occurrence of SN", "setting": "[1]; [4]", "value": "0 n (%)"},
      {"measurement": "Occurrence of infection SAEs", "setting": "[1]; [4]", "value": "1 (11.1) n (%)"},
      {"measurement": "Occurrence of platelet transfusions", "setting": "[1]; [4]", "value": "0 n (%)"},
      {"measurement": "Occurrence of pulmonary infection SAEs", "setting": "[1]; [4]", "value": "0 n (%)"},
      {"measurement": "Patients with any event for MAHE", "setting": "[1]; [4]", "value": "6 (66.7) n (%)"},
      {"measurement": "Time to first MAHE, median", "setting": "[1]; [4]", "value": 3.0, "unit": "months"},
      {"measurement": "DLTs reported", "setting": "[1]; G1T28-02 Part 1, 240 mg/m2 + E/P, Grade 2 neutropenia resulting in Cycle 2 delay", "value": "one"},
      {"measurement": "DSN, median (SD) (footnote a)", "setting": "[1]; [5]", "value": "6 (5.7) days"},
      {"measurement": "Mean ANC Nadir in Cycle 1", "setting": "[1]; [5]", "value": "1.414e+09", "unit": "L⁻¹"},
      {"measurement": "Occurrence of ESA administrations", "setting": "[1]; [5]", "value": "2 (10.5) n (%)"},
      {"measurement": "Occurrence of FN", "setting": "[1]; [5]", "value": "0 n (%)"},
      {"measurement": "Occurrence of G-CSF administration", "setting": "[1]; [5]", "value": "8 (42.1) n (%)"},
      {"measurement": "Occurrence of Grade 3 or 4 hematologic laboratory abnormalities", "setting": "[1]; [5]", "value": "5 (26.3) n (%)"},
      {"measurement": "Occurrence of IV antibiotic use", "setting": "[1]; [5]", "value": "5 (26.3) n (%)"},
      {"measurement": "Occurrence of RBC transfusions on/after Week 5", "setting": "[1]; [5]", "value": "5 (26.3) n (%)"},
      {"measurement": "Occurrence of infection SAEs", "setting": "[1]; [5]", "value": "3 (15.8) n (%)"},
      {"measurement": "Occurrence of platelet transfusions", "setting": "[1]; [5]", "value": "1 (5.3) n (%)"},
      {"measurement": "Occurrence of pulmonary infection SAEs", "setting": "[1]; [5]", "value": "1 (5.3) n (%)"},
      {"measurement": "Patients with any event for MAHE", "setting": "[1]; [5]", "value": "12 (63.2) n (%)"},
      {"measurement": "Time to first MAHE, median", "setting": "[1]; [5]", "value": 2.6, "unit": "months"},
      {"measurement": "patients reporting DLTs", "setting": "[2]; G1T28-03 Part 1, 200 mg/m2 + topotecan 0.75 mg/m2", "value": "2 of 4"},
      {"measurement": "DSN in Cycle 1, mean (SD)", "setting": "[2]; [6]", "value": "0 (0.0) days"},
      {"measurement": "MAHE, event rate", "setting": "[2]; [6]", "value": 0.102, "unit": "per week"},
      {"measurement": "Mean ANC Nadir in Cycle 1", "setting": "[2]; [6]", "value": "0.98 (0.330) ×109/L"},
      {"measurement": "Occurrence of ESA administrations", "setting": "[2]; [6]", "value": "0 n (%)"},
      {"measurement": "Occurrence of FN", "setting": "[2]; [6]", "value": "0 n (%)"},
      {"measurement": "Occurrence of G-CSF administration", "setting": "[2]; [6]", "value": "1 (25.0) n (%)"},
      {"measurement": "Occurrence of Grade 3 or 4 decreased hemoglobin laboratory values", "setting": "[2]; [6]", "value": "2 (50.0) n (%)"},
      {"measurement": "Occurrence of Grade 3 or 4 decreased platelet count values", "setting": "[2]; [6]", "value": "2 (50.0) n (%)"},
      {"measurement": "Occurrence of Grade 3 or 4 hematologic laboratory abnormalities", "setting": "[2]; [6]", "value": "4 (100.0) n (%)"},
      {"measurement": "Occurrence of IV antibiotic use", "setting": "[2]; [6]", "value": "1 (25.0) n (%)"},
      {"measurement": "Occurrence of RBC transfusions on/after Week 5", "setting": "[2]; [6]", "value": "2 (50.0) n (%)"},
      {"measurement": "Occurrence of SN", "setting": "[2]; [6]", "value": "1 (25.0) n (%)"},
      {"measurement": "Occurrence of infection SAEs", "setting": "[2]; [6]", "value": "1 (25.0) n (%)"},
      {"measurement": "Occurrence of platelet transfusions", "setting": "[2]; [6]", "value": "0 n (%)"},
      {"measurement": "Occurrence of pulmonary infection SAEs", "setting": "[2]; [6]", "value": "1 (25.0) n (%)"},
      {"measurement": "DSN in Cycle 1, mean (SD)", "setting": "[2]; [7]", "value": "8 (6.8) days"},
      {"measurement": "MAHE, event rate", "setting": "[2]; [7]", "value": 0.156, "unit": "per week"},
      {"measurement": "Mean ANC Nadir in Cycle 1", "setting": "[2]; [7]", "value": "0.47 (0.551) ×109/L"},
      {"measurement": "Occurrence of ESA administrations", "setting": "[2]; [7]", "value": "1 (33.3) n (%)"},
      {"measurement": "Occurrence of FN", "setting": "[2]; [7]", "value": "0 n (%)"},
      {"measurement": "Occurrence of G-CSF administration", "setting": "[2]; [7]", "value": "2 (66.7) n (%)"},
      {"measurement": "Occurrence of Grade 3 or 4 decreased hemoglobin laboratory values", "setting": "[2]; [7]", "value": "1 (33.3) n (%)"},
      {"measurement": "Occurrence of Grade 3 or 4 decreased platelet count values", "setting": "[2]; [7]", "value": "1 (33.3) n (%)"},
      {"measurement": "Occurrence of Grade 3 or 4 hematologic laboratory abnormalities", "setting": "[2]; [7]", "value": "3 (100.0) n (%)"},
      {"measurement": "Occurrence of IV antibiotic use", "setting": "[2]; [7]", "value": "1 (33.3) n (%)"},
      {"measurement": "Occurrence of RBC transfusions on/after Week 5", "setting": "[2]; [7]", "value": "1 (33.3) n (%)"},
      {"measurement": "Occurrence of SN", "setting": "[2]; [7]", "value": "2 (66.7) n (%)"},
      {"measurement": "Occurrence of infection SAEs", "setting": "[2]; [7]", "value": "1 (33.3) n (%)"},
      {"measurement": "Occurrence of platelet transfusions", "setting": "[2]; [7]", "value": "1 (33.3) n (%)"},
      {"measurement": "Occurrence of pulmonary infection SAEs", "setting": "[2]; [7]", "value": "1 (33.3) n (%)"},
      {"measurement": "DSN in Cycle 1, mean (SD)", "setting": "[2]; G1T28-03 Part 1, 200 mg/m2 + topotecan […]2 (n = 2)", "value": "14 (1.4) days"}
    ]}
  ]
}
